Molecules are shown by their SMILES. The source made the active and inactive calls.

Assay [1] addresses Polyadenylate-binding protein 1 (Homo sapiens, UniProt P11940). As to the kind of experiment: blockers of PABP interaction with poly(A) – biochemical, fluorescence polarization, […] (AID 2014). Background: Fluorescence polarisation rises when a labelled molecule tumbles more slowly, as on binding a larger partner.
Assay [2] concerns the target Eukaryotic translation initiation factor 4H (Homo sapiens, UniProt Q15056). As to the kind of experiment: eIF4H binding inhibition – biochemical, uHTS, fluorescence polarization, translation initiation inhibitor project, primary screen (AID 2012).
The target of assay [3] is FAD-linked sulfhydryl oxidase ALR (Homo sapiens, UniProt P55789). As to the kind of experiment: ALR-catalysed DTT oxidation blockers – biochemical, H2O2 detection, luminescence, cherry-pick, dose response (AID 493248).
Assay [4] is described as follows: antiviral protection against BTV-induced cell death – arbovirus, BSR cells, confirmation (AID 1250).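 Note: protection from viral cytopathic effect measured as cell viability by ATP luminescence.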 In kind it is functional.
Assay [5] deals with Dual specificity tyrosine-phosphorylation-regulated kinase 1A (Rattus norvegicus, UniProt Q63470). In kind it is biochemical, Homo sapiens.
For assay [6], the target named is T1, Mitochondrial peptide methionine sulfoxide reductase (Bos taurus, UniProt P54149).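 Note: absorbance read-out, biochemical high-throughput dose-response screen for MsrA inhibitors, confirmatory; recombinant bovine MsrA coupled to E. coli TrxB with NADPH and selenocystamine; potency is for inhibitors of MsrA activity on DMSO substrate.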
T1 sequence (P54149 whole entry): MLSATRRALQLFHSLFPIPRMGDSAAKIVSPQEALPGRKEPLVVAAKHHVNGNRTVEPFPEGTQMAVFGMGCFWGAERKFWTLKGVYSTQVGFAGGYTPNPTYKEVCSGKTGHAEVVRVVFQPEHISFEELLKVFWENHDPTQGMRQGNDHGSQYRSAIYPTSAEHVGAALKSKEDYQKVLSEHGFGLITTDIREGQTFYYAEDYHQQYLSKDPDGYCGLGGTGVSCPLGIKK
Format: functional.

For assay [7], the target named is Cytochrome P450 3A4 (Homo sapiens, UniProt P08684). The note with it: read-out: Potency.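 Note: confirmatory qHTS run detecting inhibitors and substrates of CYP3A4.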
Assay [8] addresses Cytochrome P450 2D6 (Homo sapiens, UniProt P10635). As to the kind of experiment: qHTS Assay for Inhibitors and Substrates of Cytochrome P450 2D6. [Related pubchem assays: 410 ]. In kind it is ADME. The note with it: read-out: Potency. (In general: qHTS replaces the single test concentration by a dilution series.)
The nature of assay [9]: Counterscreen for IDE inhibitors: Luminescence-based cell-based high throughput dose response assay to identify compounds that are cytotoxic to HEK cells. [Related pubchem assays: 434962 (Primary screen (IDE inhibitors in singlicate)), 449730 (Counterscreen (Cytotoxicity in triplicate)), 435028 (Confirmation (IDE inhibitors in triplicate)) …. Format: functional. Particulars: HEK293. (In general: Counterscreens check selectivity or assay interference.)

In assay [10] the target is Insulin-degrading enzyme (Homo sapiens, UniProt P14735). The experiment in a line: Dose Response: Fluorescence polarization-based cell-based high throughput dose response assay for inhibitors of insulin-degrading enzyme (IDE). [Related pubchem assays: 434962 (Primary screen (IDE inhibitors in singlicate)), 449730 (Counterscreen (Cytotoxicity in triplicate)), 435028 (Confirmation (IDE inhibitors in triplicate)), 434984 (Summary …. In kind it is functional.
Chain of Insulin-degrading enzyme (P14735 whole entry): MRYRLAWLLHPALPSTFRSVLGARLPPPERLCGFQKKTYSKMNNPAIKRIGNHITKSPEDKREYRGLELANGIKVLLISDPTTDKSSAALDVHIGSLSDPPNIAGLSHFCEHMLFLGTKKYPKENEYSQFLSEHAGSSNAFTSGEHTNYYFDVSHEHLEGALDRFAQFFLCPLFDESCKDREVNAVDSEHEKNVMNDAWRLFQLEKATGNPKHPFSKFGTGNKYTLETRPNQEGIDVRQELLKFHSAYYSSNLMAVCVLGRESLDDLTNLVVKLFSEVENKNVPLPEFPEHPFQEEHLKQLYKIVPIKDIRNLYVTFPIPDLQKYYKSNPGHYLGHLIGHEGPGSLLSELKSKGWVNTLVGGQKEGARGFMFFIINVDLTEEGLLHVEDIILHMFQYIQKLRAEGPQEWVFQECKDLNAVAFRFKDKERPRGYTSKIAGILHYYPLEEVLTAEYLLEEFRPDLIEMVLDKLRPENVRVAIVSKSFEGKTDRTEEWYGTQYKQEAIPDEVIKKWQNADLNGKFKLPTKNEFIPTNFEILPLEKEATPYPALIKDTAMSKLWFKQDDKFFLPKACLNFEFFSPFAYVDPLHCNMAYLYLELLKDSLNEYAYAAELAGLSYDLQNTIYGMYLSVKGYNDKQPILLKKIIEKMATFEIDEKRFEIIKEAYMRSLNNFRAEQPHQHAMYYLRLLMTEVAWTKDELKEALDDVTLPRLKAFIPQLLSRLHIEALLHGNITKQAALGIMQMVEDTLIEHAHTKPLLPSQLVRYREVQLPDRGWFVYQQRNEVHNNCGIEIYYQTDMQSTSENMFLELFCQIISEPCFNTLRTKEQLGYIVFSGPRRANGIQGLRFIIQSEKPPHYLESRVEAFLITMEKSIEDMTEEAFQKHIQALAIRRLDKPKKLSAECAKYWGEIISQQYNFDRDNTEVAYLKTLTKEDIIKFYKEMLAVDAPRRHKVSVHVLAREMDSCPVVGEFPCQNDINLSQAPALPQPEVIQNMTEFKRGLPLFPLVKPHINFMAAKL

Chain of Cytochrome P450 2D6 (P10635 whole entry): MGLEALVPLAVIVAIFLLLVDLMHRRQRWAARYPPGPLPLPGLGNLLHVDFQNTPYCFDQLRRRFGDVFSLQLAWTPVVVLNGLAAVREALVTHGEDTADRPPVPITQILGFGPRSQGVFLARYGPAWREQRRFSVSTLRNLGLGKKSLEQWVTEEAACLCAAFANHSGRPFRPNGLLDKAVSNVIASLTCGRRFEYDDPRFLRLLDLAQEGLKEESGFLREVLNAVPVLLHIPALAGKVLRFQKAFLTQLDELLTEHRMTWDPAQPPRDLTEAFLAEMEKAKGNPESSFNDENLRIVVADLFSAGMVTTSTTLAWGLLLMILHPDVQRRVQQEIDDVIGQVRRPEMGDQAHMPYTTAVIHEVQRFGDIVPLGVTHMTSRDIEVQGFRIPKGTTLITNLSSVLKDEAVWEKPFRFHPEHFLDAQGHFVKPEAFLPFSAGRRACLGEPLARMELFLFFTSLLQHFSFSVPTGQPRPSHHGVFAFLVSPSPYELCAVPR
Chain of Cytochrome P450 3A4 (P08684 whole entry): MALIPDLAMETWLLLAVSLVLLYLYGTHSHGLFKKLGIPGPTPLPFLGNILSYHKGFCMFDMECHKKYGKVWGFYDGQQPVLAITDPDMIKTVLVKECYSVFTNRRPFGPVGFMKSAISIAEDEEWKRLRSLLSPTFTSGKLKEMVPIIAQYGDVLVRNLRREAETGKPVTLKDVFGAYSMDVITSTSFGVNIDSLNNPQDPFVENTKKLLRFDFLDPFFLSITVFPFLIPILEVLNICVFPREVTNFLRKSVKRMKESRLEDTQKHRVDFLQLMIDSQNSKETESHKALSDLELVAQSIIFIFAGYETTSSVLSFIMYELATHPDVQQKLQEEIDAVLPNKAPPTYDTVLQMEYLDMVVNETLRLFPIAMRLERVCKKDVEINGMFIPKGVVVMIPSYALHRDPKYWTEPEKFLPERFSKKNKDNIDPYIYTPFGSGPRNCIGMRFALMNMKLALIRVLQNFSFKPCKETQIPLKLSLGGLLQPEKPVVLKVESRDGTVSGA
Chain of FAD-linked sulfhydryl oxidase ALR (P55789 whole entry): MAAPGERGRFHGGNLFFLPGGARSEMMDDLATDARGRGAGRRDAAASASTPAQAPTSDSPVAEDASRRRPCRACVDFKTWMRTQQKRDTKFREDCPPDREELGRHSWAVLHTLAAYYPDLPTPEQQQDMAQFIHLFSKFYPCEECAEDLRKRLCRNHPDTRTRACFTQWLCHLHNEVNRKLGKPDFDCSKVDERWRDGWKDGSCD
Chain of Polyadenylate-binding protein 1 (P11940 whole entry): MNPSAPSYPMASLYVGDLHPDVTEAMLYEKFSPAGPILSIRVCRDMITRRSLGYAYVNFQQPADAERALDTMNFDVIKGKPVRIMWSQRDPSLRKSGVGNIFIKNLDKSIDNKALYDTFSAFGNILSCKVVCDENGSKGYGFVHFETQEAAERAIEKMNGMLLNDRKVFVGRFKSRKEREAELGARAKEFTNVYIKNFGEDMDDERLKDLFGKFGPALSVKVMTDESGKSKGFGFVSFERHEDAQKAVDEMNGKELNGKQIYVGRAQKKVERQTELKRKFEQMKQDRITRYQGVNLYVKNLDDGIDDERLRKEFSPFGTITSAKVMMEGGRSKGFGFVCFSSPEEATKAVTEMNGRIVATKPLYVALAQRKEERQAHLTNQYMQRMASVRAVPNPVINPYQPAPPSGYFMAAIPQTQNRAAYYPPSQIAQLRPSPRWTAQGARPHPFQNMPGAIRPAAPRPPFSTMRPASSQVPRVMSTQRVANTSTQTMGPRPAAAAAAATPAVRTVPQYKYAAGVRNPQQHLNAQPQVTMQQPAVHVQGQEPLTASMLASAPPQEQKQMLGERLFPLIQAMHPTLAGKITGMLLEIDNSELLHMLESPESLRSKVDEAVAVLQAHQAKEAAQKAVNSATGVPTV

Usually IC50 stands for the concentration that gives 50% inhibition. `CCCCn1cc[n+](-c2nc3c([N+](=O)[O-])cccc3n2C)c1`: the IC50 in [1] is 4.55 µM (active); in assay [2], > 100 µM (inactive).

As for `CCN(CC)c1ccc(NC(=O)c2c(OC)cccc2OC)c(C)c1`, the AC50 in assay [3] was 0.84 µM (active). Besides, the IC50 in assay [4] was 23.5 µM (active).

`COc1cc2c(cc1O)CC1c3c(cc(O)c(OC)c3-2)CCN1C` (stereo not given): the AC50 in assay [5] is 3.83 µM (active); in [7], 25.1 µM (inconclusive). Moreover, in [6], the IC50 was 53.9 µM (inactive).

Consider `CC[C@@H]1[C@H]2CCCCN3[C@@H]2[C@@H](C[C@H]3[C@@H]2C[C@H](C)C(=O)O2)[C@@H]2[C@H]1OC(=O)[C@H]2C`, for which the AC50 in assay [8] was 10 µM (inconclusive).

With `O=C(N/N=C/c1cccnc1)c1cccc(NC(=O)c2cccc(Br)c2)c1`, the IC50 in [9] is 53.6 µM (not active); in assay [10], 21.9 µM (not active).

The values are drawn from ChEMBL document CHEMBL1201862, “PubChem BioAssay data set” (2004).
